Laboratory results published in patent US10227323B2, “Glucosylceramide synthase inhibitors for the treatment of diseases” (BIOMARIN PHARMACEUTICAL INC., priority 2013, dated 2019).

Target: T1, GCS (Canis lupus familiaris, UniProt A0A8I3MXG6)
T1 sequence (A0A8I3MXG6 1-394): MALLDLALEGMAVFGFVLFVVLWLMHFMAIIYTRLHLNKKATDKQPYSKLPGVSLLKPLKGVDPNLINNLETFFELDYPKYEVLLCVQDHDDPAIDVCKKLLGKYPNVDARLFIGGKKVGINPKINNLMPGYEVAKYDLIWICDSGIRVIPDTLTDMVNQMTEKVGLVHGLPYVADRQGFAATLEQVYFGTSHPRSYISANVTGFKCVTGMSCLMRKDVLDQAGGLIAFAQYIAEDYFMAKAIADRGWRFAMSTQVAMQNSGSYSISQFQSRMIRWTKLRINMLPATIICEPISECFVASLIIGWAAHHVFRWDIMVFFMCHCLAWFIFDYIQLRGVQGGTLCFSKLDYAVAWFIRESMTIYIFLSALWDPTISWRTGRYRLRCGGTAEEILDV
Test: Assay 1: GCS Enzymatic Assay (MDCK cell lysate, C6-NBD-Ceramide, LC/MS)
Format: biochemical, canine
Conditions: Table 2; for % inhibition generated from Assay 1: data marked by *; for IC50: data without asterisk, read-out: IC50 (nM) generated from Assay 1
How it was run: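 LC/MS/MS measurement of glucosylceramide and NBD-ceramide after a 1 h, 37 °C reaction with 100 μM UDP-glucose and 10 μM C6-NBD-ceramide gave IC50s or percent inhibition.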

Structure (SMILES) | IC50 [nM] | % inhibition generated from Assay 1
O=C(N[C@H](CN1CCCC1)[C@H](O)c1cc(F)c2c(c1)OCCO2)C(=O)c1csc(-c2ccc(F)cc2)n1 [Compound 226, N-((1R,2R)-1-(8-fluoro-2,3-dihydrobenzo[b][1,4]dioxin-6-yl)-1-hydroxy-3-(pyrrolidin-1-yl)propan-2-yl)-2-(2-(4-fluorophenyl)thiazol-4-yl)-2-oxoacetamide] | – | B* (the compound had a % inhibition of greater than or equal to about 3% but less than about 50%)
O=C(N[C@H](CN1CCC1)[C@H](O)c1cc(F)c2c(c1)OCCO2)C(=O)c1ccc(N2CCCCC2)cc1 [Compound 227, N-((1R,2R)-3-(azetidin-1-yl)-1-(8-fluoro-2,3-dihydrobenzo[b][1,4]dioxin-6-yl)-1-hydroxypropan-2-yl)-2-oxo-2-(4-(piperidin-1-yl)phenyl)acetamide] | < 50 | –
O=C(N[C@H](CN1CCCC1)[C@H](O)c1cc(F)c2c(c1)OCCO2)C(=O)c1ccc(-c2ccccn2)cc1 [Compound 228, N-((1R,2R)-1-(8-fluoro-2,3-dihydrobenzo[b][1,4]dioxin-6-yl)-1-hydroxy-3-(pyrrolidin-1-yl)propan-2-yl)-2-oxo-2-(4-(pyridin-2-yl)phenyl)acetamide] | < 50 | –
O=C(N[C@H](CN1CCCC1)[C@H](O)c1ccc2c(c1)OCCO2)C(=O)c1csc(-c2ccc(F)cc2)n1 [Compound 229, N-((1R,2R)-1-(2,3-dihydrobenzo[b][1,4]dioxin-6-yl)-1-hydroxy-3-(pyrrolidin-1-yl)propan-2-yl)-2-(2-(4-fluorophenyl)thiazol-4-yl)-2-oxoacetamide] | – | B* (the compound had a % inhibition of greater than or equal to about 3% but less than about 50%)
O=C(N[C@H](CN1CCCC1)[C@H](O)c1cc(F)c2c(c1)OCCO2)C(=O)c1ccc(-c2ccc(F)cc2)s1 [Compound 230, N-((1R,2R)-1-(8-fluoro-2,3-dihydrobenzo[b][1,4]dioxin-6-yl)-1-hydroxy-3-(pyrrolidin-1-yl)propan-2-yl)-2-(5-(4-fluorophenyl)thiophen-2-yl)-2-oxoacetamide] | < 50 | –
O=C(N[C@H](CN1CCCC1)[C@H](O)c1ccc(OC2CC2)c(Cl)c1)C(=O)c1ccc(N2CCCCC2)cc1 [Compound 231, N-((1R,2R)-1-(3-chloro-4-cyclopropoxyphenyl)-1-hydroxy-3-(pyrrolidin-1-yl)propan-2-yl)-2-oxo-2-(4-(piperidin-1-yl)phenyl)acetamide] | < 50 | –
Cn1ncc2ccc(-c3ccc(C(F)(F)C(=O)N[C@H](CN4CCCC4)[C@H](O)c4ccc(OC5CC5)c(Cl)c4)cc3)cc21 [Compound 232, N-((1R,2R)-1-(3-chloro-4-cyclopropoxyphenyl)-1-hydroxy-3-(pyrrolidin-1-yl)propan-2-yl)-2,2-difluoro-2-(4-(1-methyl-1H-indazol-6-yl)phenyl)acetamide] | < 50 | –
O=C(N[C@H](CN1CCCC1)[C@H](O)c1ccc(OC2CC2)c(Cl)c1)C(=O)c1ccc2sccc2c1 [Compound 233, 2-(benzo[b]thiophen-5-yl)-N-((1R,2R)-1-(3-chloro-4-cyclopropoxyphenyl)-1-hydroxy-3-(pyrrolidin-1-yl)propan-2-yl)-2-oxoacetamide] | < 50 | –
O=C(N[C@H](CN1CCCC1)[C@H](O)c1ccc(OC2CC2)c(Cl)c1)C(=O)c1cccc(N2CCCCC2)c1 [Compound 238, N-((2R)-1-(3-chloro-4-cyclopropoxyphenyl)-1-hydroxy-3-(pyrrolidin-1-yl)propan-2-yl)-2-oxo-2-(3-(piperidin-1-yl)phenyl)acetamide] | – | B* (the compound had a % inhibition of greater than or equal to about 3% but less than about 50%)
Cn1ncc2ccc(C(=O)C(=O)N[C@H](CN3CCCC3)[C@H](O)c3cc(F)c4c(c3)OCCO4)cc21 [Compound 245, N-((1R,2R)-1-(8-fluoro-2,3-dihydrobenzo[b][1,4]dioxin-6-yl)-1-hydroxy-3-(pyrrolidin-1-yl)propan-2-yl)-2-(1-methyl-1H-indazol-6-yl)-2-oxoacetamide] | – | A* (the compound had a % inhibition of a percent inhibition of greater than or equal to about 50%)
O=C(N[C@H](CN1CCCC1)[C@H](O)c1ccc(OC2CC2)c(Cl)c1)C(F)(F)c1ccc(-c2ccc(F)cc2)nc1 [Compound 247, N-((1R,2R)-1-(3-chloro-4-cyclopropoxyphenyl)-1-hydroxy-3-(pyrrolidin-1-yl)propan-2-yl)-2,2-difluoro-2-(6-(4-fluorophenyl)pyridin-3-yl)acetamide] | – | A* (the compound had a % inhibition of a percent inhibition of greater than or equal to about 50%)

Further lines, with some results ahead:

IC50 [nM] | Structure (SMILES) | % inhibition generated from Assay 1
< 50 | O=C(N[C@H](CN1CCCC1)[C@H](O)c1cc(Cl)c2c(c1)OCCO2)C(=O)c1ccc(-c2ccc(F)cc2)cc1 [Compound 234, N-((1R,2R)-1-(8-chloro-2,3-dihydrobenzo[b][1,4]dioxin-6-yl)-1-hydroxy-3-(pyrrolidin-1-yl)propan-2-yl)-2-(4′-fluoro-[1,1′-biphenyl]-4-yl)-2-oxoacetamide] | –
< 50 | Cn1ncc2ccc(-c3ccc(C(F)(F)C(=O)N[C@H](CN4CCCC4)[C@H](O)c4ccc5c(c4)OCCO5)cc3)cc21 [Compound 235, N-((1R,2R)-1-(2,3-dihydrobenzo[b][1,4]dioxin-6-yl)-1-hydroxy-3-(pyrrolidin-1-yl)propan-2-yl)-2,2-difluoro-2-(4-(1-methyl-1H-indazol-6-yl)phenyl)acetamide] | –
< 50 | Cn1ncc2ccc(-c3ccc(C(F)(F)C(=O)N[C@H](CN4CCCC4)[C@H](O)c4cc(F)c5c(c4)OCCO5)cc3)cc21 [Compound 236, 2,2-difluoro-N-((1R,2R)-1-(8-fluoro-2,3-dihydrobenzo[b][1,4]dioxin-6-yl)-1-hydroxy-3-(pyrrolidin-1-yl)propan-2-yl)-2-(4-(1-methyl-1H-indazol-6-yl)phenyl)acetamide] | –
< 50 | Cn1cc2ccc(-c3ccc(C(F)(F)C(=O)N[C@H](CN4CCCC4)[C@H](O)c4ccc(OC5CC5)c(Cl)c4)cc3)cc2n1 [Compound 237, N-((1R,2R)-1-(3-chloro-4-cyclopropoxyphenyl)-1-hydroxy-3-(pyrrolidin-1-yl)propan-2-yl)-2,2-difluoro-2-(4-(2-methyl-2H-indazol-6-yl)phenyl)acetamide] | –
< 50 | O=C(N[C@H](CN1CCCC1)[C@H](O)c1cc(F)c2c(c1)OCCO2)C(F)(F)c1ccc(-c2ccc(F)cc2)s1 [Compound 239, 2,2-difluoro-N-((1R,2R)-1-(8-fluoro-2,3-dihydrobenzo[b][1,4]dioxin-6-yl)-1-hydroxy-3-(pyrrolidin-1-yl)propan-2-yl)-2-(5-(4-fluorophenyl)thiophen-2-yl)acetamide] | –
< 50 | Cn1cc2cc(-c3ccc(C(=O)C(=O)N[C@H](CN4CCCC4)[C@H](O)c4cc(F)c5c(c4)OCCO5)cc3)ccc2n1 [Compound 240, N-((1R,2R)-1-(8-fluoro-2,3-dihydrobenzo[b][1,4]dioxin-6-yl)-1-hydroxy-3-(pyrrolidin-1-yl)propan-2-yl)-2-(4-(2-methyl-2H-indazol-5-yl)phenyl)-2-oxoacetamide] | –
< 50 | O=C(N[C@H](CN1CCCC1)[C@H](O)c1ccc(OC2CC2)c(Cl)c1)C(=O)c1ccc(Oc2ccc(F)cc2)cc1 [Compound 241, N-((1R,2R)-1-(3-chloro-4-cyclopropoxyphenyl)-1-hydroxy-3-(pyrrolidin-1-yl)propan-2-yl)-2-(4-(4-fluorophenoxy)phenyl)-2-oxoacetamide] | –
< 50 | O=C(N[C@H](CN1CCCC1)[C@H](O)c1ccc(OC2CC2)c(Cl)c1)C(=O)c1cc2ccc(Cl)cc2s1 [Compound 242, N-((1R,2R)-1-(3-chloro-4-cyclopropoxyphenyl)-1-hydroxy-3-(pyrrolidin-1-yl)propan-2-yl)-2-(6-chlorobenzo[b]thiophen-2-yl)-2-oxoacetamide] | –
< 50 | Cn1ncc2ccc(-c3ccc(C(=O)C(=O)N[C@H](CN4CCCC4)[C@H](O)c4ccc(OC5CC5)c(Cl)c4)cc3)cc21 [Compound 243, N-((1R,2R)-1-(3-chloro-4-cyclopropoxyphenyl)-1-hydroxy-3-(pyrrolidin-1-yl)propan-2-yl)-2-(4-(1-methyl-1H-indazol-6-yl)phenyl)-2-oxoacetamide] | –
< 50 | Cn1ncc2ccc(C(=O)C(=O)N[C@H](CN3CCCC3)[C@H](O)c3ccc(OC4CC4)c(Cl)c3)cc21 [Compound 244, N-((1R,2R)-1-(3-chloro-4-cyclopropoxyphenyl)-1-hydroxy-3-(pyrrolidin-1-yl)propan-2-yl)-2-(1-methyl-1H-indazol-6-yl)-2-oxoacetamide] | –
< 50 | Cn1ncc2ccc(-c3ccc(C(=O)C(=O)N[C@H](CN4CCCC4)[C@H](O)c4cc(F)c5c(c4)OCCO5)cc3)cc21 [Compound 246, N-((1R,2R)-1-(8-fluoro-2,3-dihydrobenzo[b][1,4]dioxin-6-yl)-1-hydroxy-3-(pyrrolidin-1-yl)propan-2-yl)-2-(4-(1-methyl-1H-indazol-6-yl)phenyl)-2-oxoacetamide] | –
< 50 | O=C(N[C@H](CN1CCC1)[C@H](O)c1cc(F)c2c(c1)OCCO2)C(=O)c1cccc(Oc2ccc(F)cc2)c1 [Compound 248, N-((1R,2R)-3-(azetidin-1-yl)-1-(8-fluoro-2,3-dihydrobenzo[b][1,4]dioxin-6-yl)-1-hydroxypropan-2-yl)-2-(3-(4-fluorophenoxy)phenyl)-2-oxoacetamide] | –
